In patent US8796202B2, “Multi-valent poly-Ubl chain inhibitors and methods of use” (City of Hope, priority 2011, dated 2014):
Entries after “also recorded” stand apart in the source; their conditions may differ. Non-standard residues stand in square brackets, D forms with d. Residues, ends and D or L forms follow the SMILES beside them. ξ: configuration not given here. *: point of attachment. Ile(3ξ) = CCC(C)[C@H](N)C(=O)O; Cbz = O=C(OCc1ccccc1)*

Key:
[1] = target: SUMO-3 (Homo sapiens, UniProt P55854); test: NMR (HSQC) chemical shift perturbation binding to SUMO-3; conditions: for chemical shift perturbation / binding to SUMO-3: HSQC, SUMO:ligand 1:3 or 1:10
Experimental: NMR studies. All NMR samples contained 10 mM phosphate buffer (pH 7.0) in 90% H2O/10% D2O. NMR spectra were acquired at 25° C. on a Bruker […] NMR spectrometer. All chemicals were dissolved in DMSO. Heteronuclear Single Quantum Coherence (HSQC) spectra were acquired at SUMO:compound ratios of 1:3 or 1:10 for the top scored compounds from virtual ligand screening. Both SUMO-1 and SUMO-2 were examined for their interactions with the compounds. The HSQC spectra were acquired for the protein alone, the protein with addition of 2% DMSO, and the protein in complex with a compound and 2% DMSO. The dissociation constant Kd was estimated by titrating the compound to SUMO-2, followed by recording HSQC spectra at protein:compound ratios of 1:1, 1:2, 1:3, 1:4, 1:5, 1:6, 1:7 and 1:20.
Interactions of the compounds shown in FIG. 4 with SUMO-1 and SUMO-3 were verified by NMR chemical shift perturbation analysis. These compounds generated negligible chemical shift perturbations (CSP) on SUMO-1, but much larger and specific chemical shift perturbations on SUMO-3 (FIGS. 5A and 6). […] Chemical shift perturbation was used to estimate the binding affinity of the representative compound, 333751, to SUMO-3 (20). […] This is not surprising given the much smaller size of the compound than the 10 amino acid residue SIM peptide. The SIM-binding groove on SUMO is very shallow and lacks a deep pocket (8). Since there is a lack of high affinity ligands to bind shallow surface pockets of proteins, it is unlikely that a high affinity small molecule ligand for the SIM binding surface of SUMO can be found.

[2] = system: all SUMO isoforms; conditions: reference (7), cited from earlier work
[3] = target: T1, interaction between poly-SUMO-3 chain and the tandem-SIM peptide (Homo sapiens, UniProt P55854); test: SIM pull-down (ELISA) competition, poly-SUMO-3 chains; assay type: binding
T1 construct: made in house
Experimental: Poly-SUMO chain formation. Poly-SUMO chains were synthesized by an in vitro SUMOylation reaction (4.375 μM GST-SUMO-3 and His-SUMO-3, 40 nM Ubc9 and E1, and 5 mM ATP in a 100 μl reaction). The reaction was carried out at 37° C. for 4 h and then diluted to 1 mL with phosphate buffered saline (PBS). Poly-SUMO chains were first separated from the His-SUMO-3 monomer by glutathione affinity chromatography. The eluted poly-SUMO chains were subsequently separated from the GST-SUMO-3 monomer by Ni-NTA chromatography. The eluted poly-SUMO chains were dialyzed and concentrated.
(§1) Purification of GST-WT-SIM and GST-SC-SIM. GST-tagged wild-type (GST-WT-SIM) or scrambled SIM sequence (GST-SC-SIM) was subcloned into the pGex4T-S expression vector (Amersham) and over-expressed as an N-terminal GST fusion protein in Escherichia coli strain BL21 (DE3) (Invitrogen) at 37° C. in LB media. […]
(§2) SIM pull-down. […] The plate was read at 450 nm by an ELISA reader after the reaction was stopped by addition of phosphoric acid. Quantifications of all SIM pull-downs were scaled by measurement of GST-WT-SIM pull-down (100%) and GST-SCSIM pull-down (0%). […]
The SIM and control peptides were used in pull-down assays to determine the inhibitory effects of the conjugation of inhibitor to AuNPs. […] The amount of SUMO pulled down by the SIM peptide was detected by enzyme-linked immunosorbent assay (ELISA) in an EIA microtiter plate. […]

[4] = target: interaction between SIM and SUMO-3 (Homo sapiens, UniProt P55854); test: SIM pull-down (ELISA) competition, SUMO-3 monomer; assay type: binding
Experimental: as §1, with “media. Once the OD A595 nm reached 0.6, isopropyl 1-thio-[…] (IPTG; 1 mM) was added to the media and the cells were grown for an additional 4 h at 37° C.” for “media.”
as §2
(§3) The SIM and control peptides were used in pull-down assays to determine the inhibitory effects of the conjugation of inhibitor to AuNPs. […] The amount of SUMO pulled down by the SIM peptide was detected by enzyme-linked immunosorbent assay (ELISA) in an EIA microtiter plate. […] Based on the concentrations of SUMO chains and the experimental design, it was determined that the IC50 value is likely larger than the average Kd value of the complex between AuNP and SUMO chains.

[5] = target: interaction between SIM and SUMO-1 (Homo sapiens, UniProt P63165); test: SIM pull-down (ELISA) competition, SUMO-1 monomer; assay type: binding
Experimental: as §1, with “media. Once the OD A595 nm reached 0.6, isopropyl 1-thio-[…] (IPTG; 1 mM) was added to the media and the cells were grown for an additional 4 h at 37° C.” for “media.”
as §2, §3

Sequence of SUMO-3 (P55854 1-92 limits assumed): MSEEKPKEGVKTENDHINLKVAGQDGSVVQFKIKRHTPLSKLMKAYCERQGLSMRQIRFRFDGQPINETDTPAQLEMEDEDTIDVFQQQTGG
Sequence of interaction between SIM and SUMO-1 (P63165 1-97 limits assumed): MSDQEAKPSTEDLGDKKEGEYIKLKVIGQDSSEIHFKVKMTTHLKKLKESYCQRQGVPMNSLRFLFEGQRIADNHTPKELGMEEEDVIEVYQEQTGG
T1 sequence (P55854 1-92 limits assumed): as the sequence (P55854 1-92 limits assumed) above
T1 sequence (P55854 1-92 limits assumed): as above
Sequence of interaction between SIM and SUMO-3 (P55854 1-92 limits assumed): as above

CCC(C)[C@H](NC(=O)OCc1ccccc1)C(=O)N[C@@H](CC(C)C)C(=O)O (stereo partly drawn) [compound 333751] (Cbz-[Ile(3ξ)]-Leu-OH)
chemical shift perturbation / binding to SUMO-3 [1]: among the strongest; also recorded: induced chemical shift perturbation on the same surface of SUMO-3 and to a similar extent
affinity lower than that between the PIASx SIM and SUMO-2 ([1]; compared with PIASx SIM peptide): more than 200 fold
Kd ([1]; estimated from chemical shift change vs ligand:protein ratio): 1200 ± 400 µM

KVDVIDLTIE [PIASx SIM]
higher affinity for all SUMO isoforms than other characterized SIM sequences [2]: ~10 fold
Kd ([2]; read-out: dissociation constants for all SUMO isoforms): 4 to 8 µM

CCC(C)[C@H](NC(=O)/C=C/c1ccc(NC(=O)CCS)cc1)C(=O)N[C@@H](CC(C)C)C(=O)O (stereo partly drawn) [derivative 2]
inhibition of poly-SUMO-3 chain / SIM interaction [3]: nor did it inhibit poly-SUMO chain and SIM interactions
chemical shift perturbation / binding to SUMO-3 [1]: induced chemical shift perturbation on the same surface of SUMO-3 and to a similar extent
inhibition of SUMO-3 monomer / SIM peptide interaction [4]: not significantly inhibitory
inhibition of SUMO-1 monomer / SIM peptide interaction [5]: not significantly inhibitory
